Drawing on patent US20220009920A1 (GB005, Inc., priority 2020, published 2022), this text covers inhibition for three molecules.

One may read the inhibition as the share of the control response that was lost under treatment. Low values mean little suppression, high ones strong suppression.

Holding throughout (test): Large panel kinase profiling
Holding throughout (type): biochemical
What all share (settings): 1 μM test article, 1 mM ATP

One test concerns the target PAK1 (Homo sapiens, UniProt Q13153). In a few lines:
(§1)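 Activity is measured in real time from the CSox sensor's fluorescence at 485 nm after 360 nm excitation, sampled every minute. Assays run at 30° C. with 1 mM ATP and a single 1 μM compound dose.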

The next test has as its target T1, MYLK3 (Homo sapiens, UniProt Q32MK0).
T1 construct: AssayQuant Technologies, Inc. (assay service)
T1 sequence (Q32MK0 1-819): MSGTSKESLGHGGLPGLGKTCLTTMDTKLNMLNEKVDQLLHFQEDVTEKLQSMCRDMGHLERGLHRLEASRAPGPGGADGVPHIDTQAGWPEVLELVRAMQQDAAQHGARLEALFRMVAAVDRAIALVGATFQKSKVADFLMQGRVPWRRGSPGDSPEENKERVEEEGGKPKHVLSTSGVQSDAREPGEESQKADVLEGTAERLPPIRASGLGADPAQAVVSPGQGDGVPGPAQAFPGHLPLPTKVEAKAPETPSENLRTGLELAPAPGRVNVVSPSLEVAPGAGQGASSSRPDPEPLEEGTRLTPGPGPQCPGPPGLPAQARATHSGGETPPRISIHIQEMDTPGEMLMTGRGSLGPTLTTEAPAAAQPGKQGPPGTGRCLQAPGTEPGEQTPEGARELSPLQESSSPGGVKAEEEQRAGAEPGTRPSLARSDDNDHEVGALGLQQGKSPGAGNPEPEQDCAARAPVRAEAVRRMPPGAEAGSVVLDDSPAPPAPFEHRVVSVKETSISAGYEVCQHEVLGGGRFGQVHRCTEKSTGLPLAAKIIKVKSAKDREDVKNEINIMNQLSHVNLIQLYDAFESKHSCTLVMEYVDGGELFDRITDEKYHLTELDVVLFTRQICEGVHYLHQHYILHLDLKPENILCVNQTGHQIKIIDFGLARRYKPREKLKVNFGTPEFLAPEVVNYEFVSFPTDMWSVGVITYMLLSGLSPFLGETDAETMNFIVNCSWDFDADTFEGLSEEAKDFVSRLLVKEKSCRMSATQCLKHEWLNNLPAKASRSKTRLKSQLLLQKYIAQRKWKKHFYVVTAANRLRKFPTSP
The essentials: as §1

In the next test the target is T2, BMX (Homo sapiens, UniProt P51813).
T2 sequence (P51813 1-675): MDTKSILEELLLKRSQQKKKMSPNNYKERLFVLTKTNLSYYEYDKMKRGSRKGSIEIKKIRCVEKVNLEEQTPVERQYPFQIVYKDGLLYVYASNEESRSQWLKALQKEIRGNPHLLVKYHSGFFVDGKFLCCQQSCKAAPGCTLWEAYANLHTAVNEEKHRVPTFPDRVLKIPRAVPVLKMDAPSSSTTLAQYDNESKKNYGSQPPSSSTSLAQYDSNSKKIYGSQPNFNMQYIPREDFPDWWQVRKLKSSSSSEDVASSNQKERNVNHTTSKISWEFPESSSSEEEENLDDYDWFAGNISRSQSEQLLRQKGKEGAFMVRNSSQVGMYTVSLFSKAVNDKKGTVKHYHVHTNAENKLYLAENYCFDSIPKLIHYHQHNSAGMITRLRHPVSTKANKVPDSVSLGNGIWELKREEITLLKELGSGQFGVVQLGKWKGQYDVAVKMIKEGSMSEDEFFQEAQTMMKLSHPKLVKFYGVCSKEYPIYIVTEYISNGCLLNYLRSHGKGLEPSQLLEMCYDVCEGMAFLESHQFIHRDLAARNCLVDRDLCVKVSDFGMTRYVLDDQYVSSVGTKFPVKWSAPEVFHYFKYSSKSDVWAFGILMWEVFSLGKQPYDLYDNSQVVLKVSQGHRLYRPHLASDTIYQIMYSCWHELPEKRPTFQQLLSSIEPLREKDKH
The essentials: as §1

Sequence of PAK1 (Q13153 whole entry): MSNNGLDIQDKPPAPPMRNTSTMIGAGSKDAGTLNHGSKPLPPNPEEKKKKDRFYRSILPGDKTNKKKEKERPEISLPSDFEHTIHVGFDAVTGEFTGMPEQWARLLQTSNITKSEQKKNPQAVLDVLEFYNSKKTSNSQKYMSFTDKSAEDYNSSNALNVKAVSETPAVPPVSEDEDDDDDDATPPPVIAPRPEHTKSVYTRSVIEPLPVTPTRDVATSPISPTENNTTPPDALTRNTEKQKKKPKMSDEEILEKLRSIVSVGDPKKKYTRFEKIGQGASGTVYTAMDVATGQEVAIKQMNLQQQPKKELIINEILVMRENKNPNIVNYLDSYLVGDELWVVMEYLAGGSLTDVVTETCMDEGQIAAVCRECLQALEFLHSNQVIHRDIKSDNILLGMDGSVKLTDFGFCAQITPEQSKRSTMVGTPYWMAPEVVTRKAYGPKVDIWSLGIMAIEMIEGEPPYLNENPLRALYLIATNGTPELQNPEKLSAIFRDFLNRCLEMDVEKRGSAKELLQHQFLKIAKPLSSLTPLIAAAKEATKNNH

Take `C=CC(=O)N1CCC[C@@H](c2c(F)cc(C(N)=O)c3[nH]c4c(c23)CCC4)C1` [Compound 10-2, (S)-8-(1-acryloylpiperidin-3-yl)-7-fluoro-1,2,3,4-tetrahydrocyclo-penta[b]indole-5-carboxamide]: the inhibition at 1 µM came to 6.8% on PAK1, 14.9% on MYLK3 and 65.2% on BMX.

For `C=CC(=O)N1CCCC(c2c(F)cc(C(N)=O)c3[nH]c4c(c23)CCCCC4)C1` (single isomer, unassigned) [Compound 5-6], the inhibition at 1 µM on PAK1 was found to be 9.3%; at MYLK3, 21.5%; against BMX, 42%.

For `C=CC(=O)N1CCC[C@@H](c2c(F)cc(C(N)=O)c3[nH]c4c(c23)CC2(CC4)CC2)C1` [Compound 6-2, (S)-5-(1-acryloylpiperidin-3-yl)-6-fluoro-1,2,4,9-tetrahydrospiro[carbazole-3,1′-cyclopropane]-8-carboxamide], the values for the inhibition at 1 µM at PAK1, against MYLK3 and against BMX were 11.4%, 9.9% and 86%, respectively.
